Laboratory results from PubChem BioAssay (NCI).
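Assay format: 96-well plates, 48-hour exposure. Abbreviation: GI50, concentration required for 50% inhibition of growth. TGI: total growth inhibition.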

Assays:
Experiment in all cases: NCI-60 cell line screen, 48 h
786-0 renal = system: 786-0 renal
A498 renal = system: A498 renal
A549 NSCLC = system: A549 NSCLC
ACHN renal = system: ACHN renal
BT-549 breast = system: BT-549 breast
CAKI-1 renal = system: CAKI-1 renal
CCRF-CEM leukemia = system: CCRF-CEM leukemia
COLO 205 colon = system: COLO 205 colon
DU-145 prostate = system: DU-145 prostate
EKVX NSCLC = system: EKVX NSCLC
HCC-2998 colon = system: HCC-2998 colon
HCT-116 colon = system: HCT-116 colon
HCT-15 colon = system: HCT-15 colon
HL-60(TB) leukemia = system: HL-60(TB) leukemia
HOP-62 NSCLC = system: HOP-62 NSCLC
HOP-92 NSCLC = system: HOP-92 NSCLC
HS 578T breast = system: HS 578T breast
HT29 colon = system: HT29 colon
IGROV1 ovarian = system: IGROV1 ovarian
K-562 leukemia = system: K-562 leukemia
KM12 colon = system: KM12 colon
LOX IMVI melanoma = system: LOX IMVI melanoma
M14 melanoma = system: M14 melanoma
MALME-3M melanoma = system: MALME-3M melanoma
MCF7 breast = system: MCF7 breast
MDA-MB-231 breast = system: MDA-MB-231 breast
MDA-MB-435 = system: MDA-MB-435
MOLT-4 leukemia = system: MOLT-4 leukemia
NCI-H226 lung = system: NCI-H226 lung
NCI-H23 lung = system: NCI-H23 lung
NCI-H460 lung = system: NCI-H460 lung
NCI-H522 lung = system: NCI-H522 lung
NCI/ADR-RES ovarian = system: NCI/ADR-RES ovarian
OVCAR-3 ovarian = system: OVCAR-3 ovarian
OVCAR-4 ovarian = system: OVCAR-4 ovarian
OVCAR-5 ovarian = system: OVCAR-5 ovarian
OVCAR-8 ovarian = system: OVCAR-8 ovarian
PC-3 prostate = system: PC-3 prostate
RPMI-8226 leukemia = system: RPMI-8226 leukemia
RXF 393 renal = system: RXF 393 renal
SF-268 CNS = system: SF-268 CNS
SF-295 CNS = system: SF-295 CNS
SF-539 CNS = system: SF-539 CNS
SK-MEL-2 melanoma = system: SK-MEL-2 melanoma
SK-MEL-28 melanoma = system: SK-MEL-28 melanoma
SK-MEL-5 melanoma = system: SK-MEL-5 melanoma
SK-OV-3 ovarian = system: SK-OV-3 ovarian
SN12C renal = system: SN12C renal
SNB-19 CNS = system: SNB-19 CNS
SNB-75 CNS = system: SNB-75 CNS
SR leukemia = system: SR leukemia
SW-620 colon = system: SW-620 colon
T-47D breast = system: T-47D breast
TK-10 renal = system: TK-10 renal
U251 CNS = system: U251 CNS
UACC-257 melanoma = system: UACC-257 melanoma
UACC-62 melanoma = system: UACC-62 melanoma
UO-31 renal = system: UO-31 renal

COc1cc2c3c(n(CCCNC4CCC4)c(=O)c2cc1OC)-c1cc2c(cc1C3=O)OCO2 showed a GI50 (786-0 renal) of 1540 nM, a TGI (786-0 renal) of 3050 nM and a GI50 (A498 renal) of 14500 nM. For the same compound, the TGI (A498 renal) was 29200 nM, the GI50 (A549 NSCLC) was 1300 nM and the TGI (A549 NSCLC) was 3310 nM. It also gave a GI50 (ACHN renal) of 873 nM, a TGI (ACHN renal) of 2360 nM and a GI50 (BT-549 breast) of 7270 nM. For the same compound, the TGI (BT-549 breast) was 22500 nM, the GI50 (CAKI-1 renal) was 1110 nM and the TGI (CAKI-1 renal) was 2370 nM. It also gave a GI50 (CCRF-CEM leukemia) of 75.7 nM, a TGI (CCRF-CEM leukemia) of 3550 nM and a GI50 (COLO 205 colon) of 1790 nM. For the same compound, the TGI (COLO 205 colon) was 6620 nM, the GI50 (DU-145 prostate) was 1040 nM and the TGI (DU-145 prostate) was 2560 nM. The GI50 (EKVX NSCLC) was 1960 nM, the TGI (EKVX NSCLC) was 4140 nM and the GI50 (HCC-2998 colon) was 1420 nM. It also gave a TGI (HCC-2998 colon) of 2820 nM, a GI50 (HCT-116 colon) of 1050 nM and a TGI (HCT-116 colon) of 2780 nM. For the same compound, the GI50 (HCT-15 colon) was 1330 nM, the TGI (HCT-15 colon) was 3130 nM and the GI50 (HL-60(TB) leukemia) was 525 nM. The TGI (HL-60(TB) leukemia) was 1520 nM, the GI50 (HOP-62 NSCLC) was 393 nM and the TGI (HOP-62 NSCLC) was 1970 nM. It also gave a GI50 (HOP-92 NSCLC) of 5260 nM, a TGI (HOP-92 NSCLC) of 13400 nM and a GI50 (HS 578T breast) of 6320 nM. It also gave a TGI (HS 578T breast) of 15800 nM, a GI50 (HT29 colon) of 1280 nM and a TGI (HT29 colon) of 2850 nM. The GI50 (IGROV1 ovarian) was 1480 nM, the TGI (IGROV1 ovarian) was 3500 nM and the GI50 (K-562 leukemia) was 554 nM. It also gave a TGI (K-562 leukemia) of 3220 nM, a GI50 (KM12 colon) of 2010 nM and a TGI (KM12 colon) of 5720 nM. The GI50 (LOX IMVI melanoma) was 360 nM, the TGI (LOX IMVI melanoma) was 884 nM and the GI50 (M14 melanoma) was 1350 nM. It also gave a TGI (M14 melanoma) of 2800 nM, a GI50 (MALME-3M melanoma) of 4340 nM and a TGI (MALME-3M melanoma) of 9280 nM. For the same compound, the GI50 (MCF7 breast) was 109 nM, the TGI (MCF7 breast) was 1870 nM and the GI50 (MDA-MB-231 breast) was 1320 nM. For the same compound, the TGI (MDA-MB-231 breast) was 2780 nM, the GI50 (MDA-MB-435) was 1590 nM and the TGI (MDA-MB-435) was 3050 nM. The GI50 (MOLT-4 leukemia) was 26.7 nM, the TGI (MOLT-4 leukemia) was 1910 nM and the GI50 (NCI-H226 lung) was 5540 nM. It also gave a TGI (NCI-H226 lung) of 26100 nM, a GI50 (NCI-H23 lung) of 1290 nM and a TGI (NCI-H23 lung) of 3190 nM. For the same compound, the GI50 (NCI-H460 lung) was 145 nM, the TGI (NCI-H460 lung) was 1660 nM and the GI50 (NCI-H522 lung) was 581 nM. It also gave a TGI (NCI-H522 lung) of 2490 nM, a GI50 (NCI/ADR-RES ovarian) of 1090 nM and a TGI (NCI/ADR-RES ovarian) of 3610 nM. It also gave a GI50 (OVCAR-3 ovarian) of 1510 nM, a TGI (OVCAR-3 ovarian) of 3050 nM and a GI50 (OVCAR-4 ovarian) of 1770 nM. The TGI (OVCAR-4 ovarian) was 3330 nM, the GI50 (OVCAR-5 ovarian) was 1890 nM and the TGI (OVCAR-5 ovarian) was 3440 nM. The GI50 (OVCAR-8 ovarian) was 1300 nM, the TGI (OVCAR-8 ovarian) was 3610 nM and the GI50 (PC-3 prostate) was 1220 nM. The TGI (PC-3 prostate) was 2870 nM, the GI50 (RPMI-8226 leukemia) was 492 nM and the TGI (RPMI-8226 leukemia) was 2180 nM. The GI50 (RXF 393 renal) was 1340 nM, the TGI (RXF 393 renal) was 2850 nM and the GI50 (SF-268 CNS) was 950 nM. It also gave a TGI (SF-268 CNS) of 2830 nM, a GI50 (SF-295 CNS) of 274 nM and a TGI (SF-295 CNS) of 1740 nM. The GI50 (SF-539 CNS) was 1210 nM, the TGI (SF-539 CNS) was 2560 nM and the GI50 (SK-MEL-2 melanoma) was 18400 nM. The TGI (SK-MEL-2 melanoma) was 33700 nM, the GI50 (SK-MEL-28 melanoma) was 1750 nM and the TGI (SK-MEL-28 melanoma) was 3380 nM. For the same compound, the GI50 (SK-MEL-5 melanoma) was 5090 nM, the TGI (SK-MEL-5 melanoma) was 10300 nM and the GI50 (SK-OV-3 ovarian) was 977 nM. The TGI (SK-OV-3 ovarian) was 5630 nM, the GI50 (SN12C renal) was 1480 nM and the TGI (SN12C renal) was 3190 nM. For the same compound, the GI50 (SNB-19 CNS) was 1240 nM, the TGI (SNB-19 CNS) was 3180 nM and the GI50 (SNB-75 CNS) was 1120 nM. It also gave a TGI (SNB-75 CNS) of 2640 nM, a GI50 (SR leukemia) of 57.6 nM and a TGI (SR leukemia) of 793 nM. For the same compound, the GI50 (SW-620 colon) was 452 nM, the TGI (SW-620 colon) was 2560 nM and the GI50 (T-47D breast) was 3730 nM. For the same compound, the TGI (T-47D breast) was 10200 nM, the GI50 (TK-10 renal) was 19000 nM and the TGI (TK-10 renal) was 33700 nM. For the same compound, the GI50 (U251 CNS) was 838 nM, the TGI (U251 CNS) was 2870 nM and the GI50 (UACC-257 melanoma) was 16300 nM. It also gave a TGI (UACC-257 melanoma) of 34200 nM, a GI50 (UACC-62 melanoma) of 4200 nM and a TGI (UACC-62 melanoma) of 12500 nM. It also gave a GI50 (UO-31 renal) of 1660 nM and a TGI (UO-31 renal) of 4530 nM.
